Tests used:
[1] = target: T1, B-RAF V600E (Homo sapiens, UniProt P15056, V600E); test: Target protein degradation, assay C: T-Rex 293 cells, HA-BRAF_V600E, 384 well format; assay type: cell-based; settings: T-Rex 293 HA-BRAF_V600E cells, 24 hours, Examples 83-269; for DC50: Assay C; for Dmax: T-REx-293, Assay C
T1 construct: expressed in transfected cells; host or cells: T-Rex 293 cells (Invitrogen #R71007)
Procedure, shortened: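 T-Rex 293 cells stably expressing doxycycline-induced (1 ng/mL) HA-BRAF V600E were treated 24 h at 37 °C with compound (300 nM–5 pM, 11 points, 0.5% DMSO). HA immunofluorescence was quantified by high-content imaging to give DC50 and Dmax (% of control); nuclei counts versus DMSO gauged toxicity.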

[2] = target: T2, B-RAF G466V (Homo sapiens, UniProt P15056, G466V); test: Target protein degradation, assay D: T-Rex 293 cells, HA-BRAF_G466V, 384 well format; assay type: cell-based; settings: T-Rex 293 HA-BRAF_G466V cells, 24 hours, Examples 83-269; for DC50: Assay D; for Dmax: T-REx-293, Assay D
T2 construct: expressed in transfected cells; host or cells: T-Rex 293 cells (Invitrogen #R71007)
Procedure, shortened: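 T-Rex 293 cells stably expressing doxycycline-induced (1 ng/mL) HA-BRAF G466V treated 24 h at 37 °C with PROTACs, 11-point 1:3 dilution, 300 nM to 5 pM final, 0.5% DMSO. Fixed cells immunostained for HA and imaged by high-content microscopy; DC50 and Dmax (% of control) derived, toxicity from nuclei counts versus DMSO.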

T2 sequence (P15056 whole entry G466V): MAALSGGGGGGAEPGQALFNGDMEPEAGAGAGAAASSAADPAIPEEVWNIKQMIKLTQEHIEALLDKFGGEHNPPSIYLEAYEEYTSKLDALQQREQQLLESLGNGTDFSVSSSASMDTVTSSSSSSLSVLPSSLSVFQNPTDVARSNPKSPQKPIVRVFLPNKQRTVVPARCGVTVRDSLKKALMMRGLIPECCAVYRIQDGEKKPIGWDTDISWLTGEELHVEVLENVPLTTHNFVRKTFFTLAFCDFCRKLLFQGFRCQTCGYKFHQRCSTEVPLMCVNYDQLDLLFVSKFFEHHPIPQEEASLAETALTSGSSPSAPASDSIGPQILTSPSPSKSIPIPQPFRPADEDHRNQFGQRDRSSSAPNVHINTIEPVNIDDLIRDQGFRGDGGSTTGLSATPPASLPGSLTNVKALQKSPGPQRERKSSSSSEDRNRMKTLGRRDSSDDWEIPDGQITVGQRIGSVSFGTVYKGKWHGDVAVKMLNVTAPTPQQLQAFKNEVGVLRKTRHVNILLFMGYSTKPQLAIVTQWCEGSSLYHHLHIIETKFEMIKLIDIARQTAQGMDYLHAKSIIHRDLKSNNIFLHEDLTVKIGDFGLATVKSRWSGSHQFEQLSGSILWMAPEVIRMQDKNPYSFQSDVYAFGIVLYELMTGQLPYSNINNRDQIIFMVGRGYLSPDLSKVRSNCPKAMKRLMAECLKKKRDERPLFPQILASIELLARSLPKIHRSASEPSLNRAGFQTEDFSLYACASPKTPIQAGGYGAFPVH
T1 sequence (P15056 whole entry V600E): as the sequence (P15056 whole entry G466V) above, with V466G, V600E counted along it

DC50 [1] | DC50 [2] | Dmax [2] | Dmax [1] | SMILES
> 500 nM | 1 to 10 nM | 35 to 70% |  | N#Cc1c(NS(=O)(=O)N2CC[C@@H](F)C2)ccc(F)c1Oc1ccc2ncn(-c3ccc(C4CCN([C@H]5C[C@H](OC6CCN(c7ccc8c(c7)CN(C7CCC(=O)NC7=O)C8=O)CC6)C5)CC4)cc3)c(=O)c2c1 (stereo partly drawn) [Example 249, (3R)—N-(2-cyano-4-fluoro-3-{[4-oxo-3-(4-{1-[(1r,3r)-3-({1-[2-(2,6-dioxopiperidin-3-yl)-1-oxo-2,3-dihydro-1H-isoindol-5-yl]piperidin-4-yl}oxy)cyclobutyl]piperidin-4-yl}phenyl)-3,4-dihydroquinazolin-6-yl]oxy}phenyl)-3-fluoropyrrolidine-1-sulfonamide]
50 to 500 nM | 1 to 10 nM | 35 to 70% | 35 to 70% | O=C1CCC(N2Cc3cc(N4CCC(CN5CCN(c6ccc(-n7cnc8ccc(Oc9c(F)ccc(NS(=O)(=O)N%10CC[C@@H](F)C%10)c9Cl)cc8c7=O)cc6)CC5)CC4)ccc3C2=O)C(=O)N1 (stereo partly drawn) [Example 199, (3R)-N-{2-chloro-3-[(3-{4-[4-({1-[2-(2,6-dioxopiperidin-3-yl)-1-oxo-2,3-dihydro-1H-isoindol-5-yl]piperidin-4-yl}methyl)piperazin-1-yl]phenyl}-4-oxo-3,4-dihydroquinazolin-6-yl)oxy]-4-fluorophenyl}-3-fluoropyrrolidine-1-sulfonamide]
50 to 500 nM | 1 to 10 nM | ≥ 70% | ≥ 70% | N#Cc1c(NS(=O)(=O)N2CC[C@@H](F)C2)ccc(F)c1Oc1ccc2ncn(-c3ccc(C4CCN(CC5CC6(CCN(c7ccc8c(c7)CN([C@H]7CCC(=O)NC7=O)C8=O)CC6)C5)C4)cc3)c(=O)c2c1 (stereo partly drawn) [Example 263, (3R)-N-(2-cyano-3-{[3-(4-{1-[(7-{2-[(3S)-2,6-dioxopiperidin-3-yl]-1-oxo-2,3-dihydro-1H-isoindol-5-yl}-7-azaspiro[3.5]nonan-2-yl)methyl]pyrrolidin-3-yl}phenyl)-4-oxo-3,4-dihydroquinazolin-6-yl]oxy}-4-fluorophenyl)-3-fluoropyrrolidine-1-sulfonamide]
50 to 500 nM | 1 to 10 nM | 35 to 70% | 35 to 70% | N#Cc1c(NS(=O)(=O)N2CC[C@@H](F)C2)ccc(F)c1Oc1ccc2ncn(-c3cnc(N4CCC(CN5CC6(C5)CN(c5ccc7c(c5)C(=O)N(C5CCC(=O)NC5=O)C7=O)C6)CC4)nc3)c(=O)c2c1 (stereo partly drawn) [Example 133, (3R)-N-{2-cyano-3-[(3-{2-[4-({6-[2-(2,6-dioxopiperidin-3-yl)-1,3-dioxo-2,3-dihydro-1H-isoindol-5-yl]-2,6-diazaspiro[3.3]heptan-2-yl}methyl)piperidin-1-yl]pyrimidin-5-yl}-4-oxo-3,4-dihydroquinazolin-6-yl)oxy]-4-fluorophenyl}-3-fluoropyrrolidine-1-sulfonamide]
5 to 50 nM | 1 to 10 nM | 35 to 70% | 35 to 70% | Cc1c(N2CCC(CN3CCN(c4ccc(-n5cnc6ccc(Oc7c(F)ccc(NS(=O)(=O)N8CC[C@@H](F)C8)c7C#N)cc6c5=O)cc4)CC3)CC2)ccc2c1CN(C1CCC(=O)NC1=O)C2=O (stereo partly drawn) [Example 104, (3R)-N-{2-cyano-3-[(3-{4-[4-({1-[2-(2,6-dioxopiperidin-3-yl)-4-methyl-1-oxo-2,3-dihydro-1H-isoindol-5-yl]piperidin-4-yl}methyl)piperazin-1-yl]phenyl}-4-oxo-3,4-dihydroquinazolin-6-yl)oxy]-4-fluorophenyl}-3-fluoropyrrolidine-1-sulfonamide]
> 500 nM | 10 to 30 nM | 35 to 70% |  | N#Cc1c(NS(=O)(=O)N2CC[C@@H](F)C2)ccc(F)c1Oc1ccc2ncn(-c3ccc(N4CCN(C(=O)C5CN(c6ccc7c(c6)CN([C@H]6CCC(=O)NC6=O)C7=O)C5)CC4)cc3)c(=O)c2c1 [Example 243, (3R)-N-{2-cyano-3-[(3-{4-[4-(1-{2-[(3S)-2,6-dioxopiperidin-3-yl]-1-oxo-2,3-dihydro-1H-isoindol-5-yl}azetidine-3-carbonyl)piperazin-1-yl]phenyl}-4-oxo-3,4-dihydroquinazolin-6-yl)oxy]-4-fluorophenyl}-3-fluoropyrrolidine-1-sulfonamide]
> 500 nM | 10 to 30 nM | ≤ 35% |  | C[C@H]1CN(CC2CCN(c3ccc4c(c3F)CN([C@@H]3CCC(=O)NC3=O)C4=O)CC2)CCN1c1ccc(-n2cnc3ccc(Oc4c(F)ccc(NS(=O)(=O)N5CC[C@@H](F)C5)c4C#N)cc3c2=O)nc1 [Example 214, (3R)-N-{2-cyano-3-[(3-{5-[(2S)-4-[(1-{2-[(3R)-2,6-dioxopiperidin-3-yl]-4-fluoro-1-oxo-2,3-dihydro-1H-isoindol-5-yl}piperidin-4-yl)methyl]-2-methylpiperazin-1-yl]pyridin-2-yl}-4-oxo-3,4-dihydroquinazolin-6-yl)oxy]-4-fluorophenyl}-3-fluoropyrrolidine-1-sulfonamide]
5 to 50 nM | 1 to 10 nM | ≤ 35% | 35 to 70% | Cc1cc(N2CCC(CN3CCN(c4ccc(-n5cnc6ccc(Oc7c(F)ccc(NS(=O)(=O)N8CC[C@@H](F)C8)c7C#N)cc6c5=O)cc4)CC3)CC2)c(F)c2c1C(=O)N(C1CCC(=O)NC1=O)C2 (stereo partly drawn) [Example 94, (3R)-N-{2-cyano-3-[(3-(4-[4-({1-[2-(2,6-dioxopiperidin-3-yl)-4-fluoro-7-methyl-1-oxo-2,3-dihydro-1H-isoindol-5-yl]piperidin-4-yl}methyl)piperazin-1-yl]phenyl}-4-oxo-3,4-dihydroquinazolin-6-yl)oxy]-4-fluorophenyl}-3-fluoropyrrolidine-1-sulfonamide]
≤ 5 nM | ≤ 1 nM | ≤ 35% | 35 to 70% | N#Cc1c(NS(=O)(=O)N2CC[C@@H](F)C2)ccc(F)c1Oc1ccc2ncn(-c3ccc(N4CCN(CCCOc5cccc6c5C(=O)N(C5CCC(=O)NC5=O)C6=O)CC4)nc3)c(=O)c2c1 (stereo partly drawn) [Example 150, (3R)-N-{2-cyano-3-[(3-{6-[4-(3-{[2-(2,6-dioxopiperidin-3-yl)-1,3-dioxo-2,3-dihydro-1H-isoindol-4-yl]oxy}propyl)piperazin-1-yl]pyridin-3-yl}-4-oxo-3,4-dihydroquinazolin-6-yl)oxy]-4-fluorophenyl}-3-fluoropyrrolidine-1-sulfonamide]

SMILES | DC50 [1] | DC50 [2] | Dmax [2] | Dmax [1]
N#Cc1c(NS(=O)(=O)N2CC[C@@H](F)C2)ccc(F)c1Oc1ccc2ncn(-c3ccc(N4CCC(O[C@H]5C[C@H](N6CCC(c7ccc8c(c7)CN(C7CCC(=O)NC7=O)C8=O)CC6)C5)CC4)cc3)c(=O)c2c1 (stereo partly drawn) [Example 253, (3R)-N-(2-cyano-4-fluoro-3-{[4-oxo-3-(4-{4-[(1r,3r)-3-{4-[2-(2,6-dioxopiperidin-3-yl)-1-oxo-2,3-dihydro-1H-isoindol-5-yl]piperidin-1-yl}cyclobutoxy]piperidin-1-yl}phenyl)-3,4-dihydroquinazolin-6-yl]oxy}phenyl)-3-fluoropyrrolidine-1-sulfonamide] | 50 to 500 nM | 1 to 10 nM | 35 to 70% | 35 to 70%
